Where two headings read alike, the source gives them in different places.
What was measured:
IGROV-1 = experiment: Inhibition of cells growth by colorimetric (SRB) assay, IGROV-1
How it was run: (§1)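 Human tumour cells in RPMI 1640 with 10% FBS were seeded at 5×10^3 cells/well, allowed to attach for 18 h, then exposed to samples at 10 to 10^−8 μg/ml for 48 h. Growth was measured by SRB staining after TCA fixation, with absorbance read at 490 nm in triplicate wells.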

LoVo = experiment: Inhibition of cells growth by colorimetric (SRB) assay, LoVo
How it was run: as §1

SK-MEL-28 = experiment: Inhibition of cells growth by colorimetric (SRB) assay, SK-MEL-28
How it was run: as §1

HeLa = experiment: Inhibition of cells growth by colorimetric (SRB) assay, HeLa; conditions: for GI50: Homo sapiens, HeLa, 48 h
Description: (§2) The finality of these assays is to interrupt the growth of a “in vitro” tumor cell culture by means a continued exhibition of the cells to the sample to be testing.
(§3) This form of the assay employs 96 well cell culture microplates of 9 mm diameter (Faircloth, 1988; Mosmann, 1983). Most of the cell lines are obtained from American Type Culture Collection (ATCC) derived from different human cancer types.
(§4) Cells are maintained in RPMI 1640 10% FBS, supplemented with 0.1 g/l penicillin and 0.1 g/l streptomycin sulphate and then incubated at 37° C., 5% CO2 and 98% humidity. For the experiments, cells were harvested from subconfluent cultures using trypsin and resuspended in fresh medium before plating.
(§5) Cells are seeded in 96 well microtiter plates, at 5×10^3 cells per well in aliquots of 195 μl medium, and they are allowed to attach to the plate surface by growing in drug free medium for 18 hours. Afterward, samples are added in aliquots of 5 μl in a ranging from 10 to 10^−8 μg/ml, dissolved in DMSO/EtOH/PBS (0.5:0.5:99). After 48 hours exposure, the antitumor effect are measured by the SRB methodology: cells are fixed by adding 50 μl of cold 50% (wt/vol) trichloroacetic acid (TCA) and incubating for 60 minutes at 4° C. Plates are washed with deionized water and dried. One hundred μl of SRB solution (0.4% wt/vol in 1% acetic acid) is added to each microtiter well and incubated for 10 minutes at room temperature. Unbound SRB is removed by washing with 1% acetic acid. Plates are air dried and bound stain is solubilized with Tris buffer. Optical densities are read on a automated spectrophotometric plate reader at a single wavelength of 490 nm.
(§6) The values for mean +/−SD of data from triplicate wells are calculated. Some parameters for cellular responses can be calculated: GI=growth inhibition, TGI=total growth inhibition (cytostatic effect) and LC=cell killing (cytotoxic effect).

IGROV-ET = experiment: Inhibition of cells growth by colorimetric (SRB) assay, IGROV-ET
How it was run: as §1

PANC-1 = experiment: Inhibition of cells growth by colorimetric (SRB) assay, PANC-1
How it was run: as §1

LoVo-Dox = experiment: Inhibition of cells growth by colorimetric (SRB) assay, LoVo-Dox
How it was run: as §1

HeLa-APL = experiment: Inhibition of cells growth by colorimetric (SRB) assay, HeLa-APL; conditions: for GI50 / CC50: Homo sapiens, 48 h
Description: as §2, §3, §4, §5, §6

DU-145 = experiment: Inhibition of cells growth by colorimetric (SRB) assay, DU-145
How it was run: as §1

K-562 = experiment: Inhibition of cells growth by colorimetric (SRB) assay, K-562
How it was run: as §1

HT-29 = experiment: Inhibition of cells growth by colorimetric (SRB) assay, HT-29
How it was run: as §1

LNCaP = experiment: Inhibition of cells growth by colorimetric (SRB) assay, LNCaP
How it was run: as §1

A-549 = experiment: Inhibition of cells growth by colorimetric (SRB) assay, A-549
How it was run: as §1

SK-BR-3 = experiment: Inhibition of cells growth by colorimetric (SRB) assay, SK-BR-3; conditions: for GI50 / CC50: Homo sapiens, SK-BR-3, 48 h
How it was run: as §1

COc1ccnc2c1c(-c1ccnc(N)n1)c1ccnc(N)n12.Cl [Compound 116]
TGI IGROV (IGROV-1; SRB assay, 48 hours exposure): 1.66E−06 | GI50 (IGROV-1; read-out: GI50 IGROV, SRB assay, 48 hours exposure): 934 nM | CC50 (IGROV-1; read-out: LC50 IGROV, SRB assay, 48 hours exposure): 26300 nM | TGI LOVO (LoVo; SRB assay, 48 hours exposure): 1.22E−06 | GI50 (LoVo; read-out: GI50 LOVO, SRB assay, 48 hours exposure): 550 nM | CC50 (LoVo; read-out: LC50 LOVO, SRB assay, 48 hours exposure): 26300 nM | TGI MEL-28 (SK-MEL-28; SRB assay, 48 hours exposure): 2.11E−06 | GI50 (SK-MEL-28; read-out: GI50 MEL-28, SRB assay, 48 hours exposure): 1100 nM | CC50 (SK-MEL-28; read-out: LC50 MEL-28, SRB assay, 48 hours exposure): 10400 nM | GI50 (HeLa; read-out: GI50 HELA, SRB assay, 48 hours exposure): 151 nM | TGI HELA (HeLa; SRB assay, 48 hours exposure): 5.26E−07 | TGI IGROV-ET (IGROV-ET; SRB assay, 48 hours exposure): 2.50E−06 | GI50 (IGROV-ET; read-out: GI50 IGROV-ET, SRB assay, 48 hours exposure): 1370 nM | CC50 (IGROV-ET; read-out: LC50 IGROV-ET, SRB assay, 48 hours exposure): 26300 nM | TGI PANC-1 (PANC-1; SRB assay, 48 hours exposure): 1.29E−05 | GI50 (PANC-1; read-out: GI50 PANC-1, SRB assay, 48 hours exposure): 1790 nM | CC50 (PANC-1; read-out: LC50 PANC-1, SRB assay, 48 hours exposure): 26300 nM | TGI LOVO-DOX (LoVo-Dox; SRB assay, 48 hours exposure): 2.59E−06 | GI50 (LoVo-Dox; read-out: GI50 LOVO-DOX, SRB assay, 48 hours exposure): 1070 nM | CC50 (LoVo-Dox; read-out: LC50 LOVO-DOX, SRB assay, 48 hours exposure): 26300 nM | GI50 (HeLa-APL; read-out: GI50 HELA-APL, SRB assay, 48 hours exposure): 98.9 nM | CC50 (HeLa-APL; read-out: LC50 HELA-APL, SRB assay, 48 hours exposure): 2300 nM | TGI HELA-APL (HeLa-APL; SRB assay, 48 hours exposure): 2.17E−07 | TGI DU-145 (DU-145; SRB assay, 48 hours exposure): 2.54E−06 | GI50 (DU-145; read-out: GI50 DU-145, SRB assay, 48 hours exposure): 1130 nM | CC50 (DU-145; read-out: LC50 DU-145, SRB assay, 48 hours exposure): 26300 nM | TGI K-562 (K-562; SRB assay, 48 hours exposure): 2.12E−05 | GI50 (K-562; read-out: GI50 K-562, SRB assay, 48 hours exposure): 2870 nM | CC50 (K-562; read-out: LC50 K-562, SRB assay, 48 hours exposure): 26300 nM | TGI HT-29 (HT-29; SRB assay, 48 hours exposure): 1.88E−05 | GI50 (HT-29; read-out: GI50 HT-29, SRB assay, 48 hours exposure): 6180 nM | CC50 (HT-29; read-out: LC50 HT-29, SRB assay, 48 hours exposure): 26300 nM | TGI LN-caP (LNCaP; SRB assay, 48 hours exposure): 1.21E−06 | GI50 (LNCaP; read-out: GI50 LN-caP, SRB assay, 48 hours exposure): 602 nM | CC50 (LNCaP; read-out: LC50 LN-caP, SRB assay, 48 hours exposure): 2430 nM | TGI A-549 (A-549; SRB assay, 48 hours exposure): 7.68E−06 | GI50 (A-549; read-out: GI50 A-549, SRB assay, 48 hours exposure): 1150 nM | CC50 (A-549; read-out: LC50 A-549, SRB assay, 48 hours exposure): 26300 nM | GI50 (SK-BR-3; read-out: GI50 SK-BR-3, SRB assay, 48 hours exposure): 892 nM | CC50 (SK-BR-3; read-out: LC50 SK-BR-3, SRB assay, 48 hours exposure): 3500 nM | TGI SK-BR-3 (SK-BR-3; SRB assay, 48 hours exposure): 1.55E−06

Cl.Nc1nccc(-c2c3c(O)ccnc3n3c(N)nccc23)n1 [Compound 54]
GI50 (IGROV-1; Homo sapiens, IGROV-1, 48 h, read-out: IGROV GI50, SRB assay, 48 hours exposure): 440 nM | CC50 (IGROV-1; Homo sapiens, IGROV-1, 48 h, read-out: IGROV LC50): 27300 nM | IGROV TGI (IGROV-1; SRB assay, 48 hours exposure): 1.37E−06 | GI50 (LoVo; Homo sapiens, LoVo, 48 h, read-out: LOVO GI50, SRB assay, 48 hours exposure): 266 nM | CC50 (LoVo; Homo sapiens, LoVo, 48 h, read-out: LOVO LC50): 27300 nM | LOVO TGI (LoVo; SRB assay, 48 hours exposure): 1.04E−06 | GI50 (SK-MEL-28; Homo sapiens, SK-MEL-28, 48 h, read-out: MEL-28 GI50, SRB assay, 48 hours exposure): 945 nM | CC50 (SK-MEL-28; Homo sapiens, SK-MEL-28, 48 h, read-out: MEL-28 LC50): 11400 nM | MEL-28 TGI (SK-MEL-28; SRB assay, 48 hours exposure): 3.22E−06 | GI50 (HeLa; read-out: HELA GI50, SRB assay, 48 hours exposure): 57.3 nM | HELA TGI (HeLa; SRB assay, 48 hours exposure): 1.17E−07 | GI50 (IGROV-ET; Homo sapiens, 48 h, read-out: IGROV-ET GI50, SRB assay, 48 hours exposure): 421 nM | CC50 (IGROV-ET; Homo sapiens, 48 h, read-out: IGROV-ET LC50): 27300 nM | IGROV-ET TGI (IGROV-ET; SRB assay, 48 hours exposure): 1.48E−06 | GI50 (PANC-1; Homo sapiens, PANC-1, 48 h, read-out: PANC-1 GI50, SRB assay, 48 hours exposure): 871 nM | CC50 (PANC-1; Homo sapiens, PANC-1, 48 h, read-out: PANC-1 LC50): 27300 nM | PANC-1 TGI (PANC-1; SRB assay, 48 hours exposure): 3.28E−06 | GI50 (LoVo-Dox; Homo sapiens, 48 h, read-out: LOVO-DOX GI50, SRB assay, 48 hours exposure): 155 nM | CC50 (LoVo-Dox; Homo sapiens, 48 h, read-out: LOVO-DOX LC50): 27300 nM | LOVO-DOX TGI (LoVo-Dox; SRB assay, 48 hours exposure): 7.32E−07 | GI50 (HeLa-APL; read-out: HELA-APL GI50): 61.2 nM | CC50 (HeLa-APL; read-out: HELA-APL LC50): 270 nM | HELA-APL TGI (HeLa-APL; SRB assay, 48 hours exposure): 1.28E−07 | GI50 (DU-145; Homo sapiens, DU-145, 48 h, read-out: DU-145 GI50, SRB assay, 48 hours exposure): 360 nM | CC50 (DU-145; Homo sapiens, DU-145, 48 h, read-out: DU-145 LC50): 27300 nM | DU-145 TGI (DU-145; SRB assay, 48 hours exposure): 1.32E−06 | GI50 (K-562; Homo sapiens, K562, 48 h, read-out: K-562 GI50, SRB assay, 48 hours exposure): 1670 nM | CC50 (K-562; Homo sapiens, K562, 48 h, read-out: K-562 LC50): 27300 nM | K-562 TGI (K-562; SRB assay, 48 hours exposure): 1.44E−05 | GI50 (HT-29; Homo sapiens, HT-29, 48 h, read-out: HT-29 GI50, SRB assay, 48 hours exposure): 1690 nM | CC50 (HT-29; Homo sapiens, HT-29, 48 h, read-out: HT-29 LC50): 27300 nM | HT-29 TGI (HT-29; SRB assay, 48 hours exposure): 8.71E−06 | GI50 (LNCaP; Homo sapiens, LNCaP, 48 h, read-out: LN-caP GI50, SRB assay, 48 hours exposure): 287 nM | CC50 (LNCaP; Homo sapiens, LNCaP, 48 h, read-out: LN-caP LC50): 1820 nM | LN-caP TGI (LNCaP; SRB assay, 48 hours exposure): 7.24E−07 | GI50 (A-549; Homo sapiens, A549, 48 h, read-out: A-549 GI50, SRB assay, 48 hours exposure): 339 nM | CC50 (A-549; Homo sapiens, A549, 48 h, read-out: A-549 LC50): 27300 nM | A-549 TGI (A-549; SRB assay, 48 hours exposure): 1.10E−06 | GI50 (SK-BR-3; read-out: SK-BR-3 GI50, SRB assay, 48 hours exposure): 530 nM | CC50 (SK-BR-3; read-out: SK-BR-3 LC50): 2670 nM | SK-BR-3 TGI (SK-BR-3; SRB assay, 48 hours exposure): 1.19E−06

From US7772241B2, “Variolin derivatives and their use as antitumor agents” (Pharma Mar S.A., priority 2001, dated 2010)
